# Assay results taken from paper PMC12931196, “Vm–MSI: a Vancomycin–Antimicrobial Peptide Conjugate Combating Resistant Bacteria and Broadening the Antimicrobial Spectrum” (Advanced Science, 2025).
# Values joined by “and” are separate entries in the source; they are usually repeats but may differ in a detail not shown here. Identical values can stand only once.
# Assays:
# [1] = tested on: 29 bacterial strains (11 Gram‐positive, 18 Gram‐negative); test: GM of the MICs across the 29 bacterial strains; type: cell-based; settings: read-out: GM: Geometric mean of the MICs across the 29 bacterial strains
# Protocol: (§1) The 2 fold broth microdilution method was performed following previously established protocols.^[ [65], [66] ^] A total of 29 strains of human pathogenic microorganisms (11 Gram‐positive and 18 Gram‐negative) were included in the assay. Standard strains were maintained in our laboratory, and clinical isolates were obtained from the Fourth Affiliated Hospital of Soochow University. […] Gradient dilutions of the drugs (vancomycin, AMPs, and vancomycin‐AMP conjugates) were prepared in 96‐well plates, with 50 µL of each drug solution added per well. For the vancomycin and AMP mixture, 25 µL of vancomycin was combined with 25 µL of AMP at the corresponding monomer gradient concentration, resulting in a total volume of 50 µL. […] Following incubation, bacterial growth was assessed by measuring absorbance at 600 nm. The MIC was defined as the lowest concentration at which no bacterial growth was detected.
# 13 bacterial strains = test: GM of MIC from tested bacterial strains (Table S2); type: cell-based; settings: 13 strains of Table S2; read-out: GM: geometric mean of MIC from tested bacterial strains
# Protocol: as §1
# E. coli ATCC25922 [2] = test: Live/dead bacteria staining (PI/SYTO9, CLSM); type: cell-based; settings: 4 µM, 1 h
# S. aureus CMCC26003 [3] = test: Antimicrobial resistance development assay; type: cell-based; settings: S. aureus CMCC26003 cultured at sub‐MIC
# [4] = tested on: multidrug‐resistant A. baumannii; test: Mouse lung infection model; type: in vivo, mice; settings: single i.p. 5 mg kg^−1 at 0.5 h post‐infection; lung CFU after one day
# Protocol: The experimental methods employed in this study were based on previously published literature.^[ [64] ^] 6–8 weeks old female mice weighing 18–20 g were selected for the study, and colonization was performed by administering 50 µL of a multidrug‐resistant A. baumannii strain (at a concentration of 1 × 10^7 CFU/mL) via tracheal intubation into the lungs of the mice for a duration of 0.5 h. After this period, an intraperitoneal injection of the drug at a dosage of 5 mg kg^−1 was administered. PBS served as a negative control, while ciprofloxacin was used as a positive control. After 24 h, the mice were euthanized, and their lung tissues were excised, homogenized, and diluted 10000 fold for colony counting. The lung tissue homogenate was then centrifuged to obtain the supernatant, which was further diluted 5 fold. The expression levels of inflammatory factors IL‐6 and TNF‐α in the supernatant were measured using an ELISA assay (ThermoFisher, US).
# [5] = tested on: VRSA 52, E. coli ATCC25922, and MDR P. aeruginosa 5; test: Crystalline violet biofilm inhibition and eradication assays; type: cell-based; settings: 0.5-8 µM; three strains
# Protocol: The mixture was incubated in a 96‐well plate for 48 h. Subsequent steps, including washing, fixation, staining, and OD measurement, were performed as described in the biofilm eradication assay.
# VRSA 52 biofilms = settings: 8 µM, 4 h, SYTO9/PI CLSM
# S. aureus CMCC26003 [6] = test: Bacterial killing kinetics; settings: 4 µM, sampled 0-180 min
# E. coli ATCC25922 [7] = test: Bacterial killing kinetics; settings: 4 µM, sampled 0-180 min
# [8] = tested on: biofilm‐resident bacteria, including VRSA, E. coli, and MDR P. aeruginosa; test: Biofilm resident bacteria assay; settings: 1-8 µM, 24 h
# S. aureus CMCC26003 [9] = test: microbe, parasite or virus in culture; settings: Staphylococcus aureus, CMCC26003, 18 h
# S. aureus ATCC29213 = test: microbe, parasite or virus in culture; settings: Staphylococcus aureus, ATCC29213, 18 h
# S. aureus 15772 = test: microbe, parasite or virus in culture; settings: Staphylococcus aureus, 15772, 18 h
# C. perfringens ATCC13124 = test: microbe, parasite or virus in culture; settings: Clostridium perfringens, ATCC13124, 18 h
# E. coli ATCC25922 [10] = test: microbe, parasite or virus in culture; settings: Escherichia coli, ATCC25922, 18 h
# E. coli CMCC44102 = test: microbe, parasite or virus in culture; settings: Escherichia coli, CMCC44102, 18 h
# K. pneumoniae 9883 = test: microbe, parasite or virus in culture; settings: Klebsiella pneumoniae, 9883, 18 h
# MDR K. pneumoniae 2 = test: microbe, parasite or virus in culture; settings: Klebsiella pneumoniae, 18 h
# P. aeruginosa ATCC27853 = test: microbe, parasite or virus in culture; settings: Pseudomonas aeruginosa, ATCC27853, 18 h
smiles,measurement,setting,value
"CN[C@H](CC(C)C)C(=O)N[C@H]1C(=O)N[C@@H](CC(N)=O)C(=O)N[C@H]2C(=O)N[C@H]3C(=O)N[C@H](C(=O)N[C@H](C(=O)O)c4cc(O)cc(O)c4-c4cc3ccc4O)[C@H](O)c3ccc(c(Cl)c3)Oc3cc2cc(c3O[C@@H]2O[C@H](CO)[C@@H](O)[C@H](O)[C@H]2O[C@H]2C[C@](C)(N)[C@H](O)[C@H](C)O2)Oc2ccc(cc2Cl)[C@H]1O [Vm, vancomycin]",MIC,[1],55.1 µM
same,MIC,13 bacterial strains,70 µg/mL
same,bacteria killed (mortality),E. coli ATCC25922 [2],6%
same,change of MIC over 20 generations,S. aureus CMCC26003 [3],four‐fold increase
same,lung‐colonizing bacteria eliminated,[4],no antibacterial activity
same,anti‐biofilm activity (inhibition and eradication),[5],no noticeable anti‐biofilm activity
same,killing in the surface layer of the biofilm (dead cells),VRSA 52 biofilms,25%
same,time to complete eradication of all viable bacteria,S. aureus CMCC26003 [6],> 180 min
same,time to elimination of all bacteria,E. coli ATCC25922 [7],no bactericidal activity
same,biofilm‐resident bactericidal effect,[8],no significant biofilm‐resident bactericidal effect
same,MIC,S. aureus CMCC26003 [9],0.4 µM and 0.59 µg/mL
same,MIC,S. aureus ATCC29213,3.16 µM and 4.69 µg/mL
same,MIC,S. aureus 15772,> 67.3 µM and > 100 µg/mL
same,MIC,C. perfringens ATCC13124,25.2 µM
same,MIC,E. coli ATCC25922 [10],> 67.3 µM and > 100 µg/mL
same,MIC,E. coli CMCC44102,> 67.3 µM
same,MIC,K. pneumoniae 9883,> 67.3 µM and > 100 µg/mL
same,MIC,MDR K. pneumoniae 2,> 67.3 µM
same,MIC,P. aeruginosa ATCC27853,> 67.3 µM and > 100 µg/mL
